From patent US12466831B2, “Substituted amino triazolopyrimidine and amino triazolopyrazine adenosine receptor antagonists, pharmaceutical compositions and their use” (Merck Sharp & Dohme LLC, priority 2018, dated 2025)
pIC50: −log10 of the molar value.

How the values were obtained:
[1] = target: T1, human A2a adenosine receptor (Homo sapiens, UniProt P29274); assay: A2a binding affinity using SPA, Method (B); conditions: Method (B): [3H]SCH58261 SPA, membranes expressing human A2a
T1 construct: purchased Perkin Elmer RBHA2aM400UA; host or cells: HEK293 or CHO cells (recombinant expression)
T1 sequence (P29274 whole entry): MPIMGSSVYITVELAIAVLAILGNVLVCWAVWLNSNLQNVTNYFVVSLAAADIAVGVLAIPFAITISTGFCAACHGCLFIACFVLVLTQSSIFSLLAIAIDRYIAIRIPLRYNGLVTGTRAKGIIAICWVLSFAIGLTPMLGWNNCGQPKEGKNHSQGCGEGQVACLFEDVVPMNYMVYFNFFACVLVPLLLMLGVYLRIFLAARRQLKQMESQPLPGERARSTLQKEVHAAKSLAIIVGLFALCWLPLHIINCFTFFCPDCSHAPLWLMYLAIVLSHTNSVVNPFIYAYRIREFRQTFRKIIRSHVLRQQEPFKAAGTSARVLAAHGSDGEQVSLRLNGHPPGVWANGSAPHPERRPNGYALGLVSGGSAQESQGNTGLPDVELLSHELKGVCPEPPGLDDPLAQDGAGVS
Description: Method (A) describes the procedure used to measure A2a binding affinity using radioligand binding. Method (B) describes the procedure used to measure A2a binding affinity using SPA technology. The method used to measure A2b binding affinity is also described below. The method used to determine the A2a IC50 value reported for each compound in the table is indicated next to the reported value. The A2b IC50 value measured using the A2b binding affinity assay is shown in the table next to the compound under the corresponding A2a value.
The A2a receptor affinity binding assay measured the amount of binding of a tritiated ligand with high affinity for the A2a adenosine receptor to membranes made from HEK293 or CHO cells recombinantly expressing the human A2a adenosine receptor, in the presence of varying concentrations of a compound of the invention. The data were generated using either filtration binding or a homogenous scintillation proximity assay (SPA).
Method (B): Measurement of A2a Binding Affinity Using SPA
Binding affinity using SPA was conducted as follows. Test compounds (50 nL) were dispensed into individual wells of a 384-well OptiPlate™ well (Perkin Elmer) by Echo® acoustic liquid transfer (Labcyte). 20 μL of 1.25 nM [^3H] SCH58261 ((7-(2-phenylethyl)-5-amino-2-(2-furyl)-pyrazolo-[4,3-e]-1,2,4-triazolo[1,5-c]pyrimidine)) in DPBS assay buffer (Dulbecco's phosphate buffered saline without calcium and magnesium, ThermoFisher Scientific, Cat. No. A1285601) supplemented with 10 mM MgCl2 was added. A2a receptor-expressing membranes were incubated with 20 μg/mL adenosine deaminase (Roche, Cat. No. 10 102 105 001) for 15 minutes at room temperature. The receptor-expressing membranes were then combined with wheat germ agglutinin-coated yttrium silicate SPA beads (GE Healthcare, Cat. No. RPNQ0023) in a ratio of […] (w/w) and incubated for 30 minutes at room temperature. 30 μL of the membrane/bead mixture (0.25 μg and 25 μg per well respectively) were added to the 384-well OptiPlate™ well. To define total and non-specific binding, wells containing 1% DMSO or 1 μM CGS15943 (Tocris Bioscience, Cat. No. 1699) respectively were also included in the experiment. The plate was incubated for one hour at room temperature with agitation. The assay plate was then incubated for an hour to allow the beads to settle before data were collected using a TopCount® (Perkin Elmer) scintillation counter. After normalization to total and non-specific binding, the percent effect at each compound concentration was calculated. The plot of percent effect versus the log of compound concentration was analyzed electronically using a 4-parameter logistic fit based on the Levenberg-Marquardt algorithm to generate IC50 values.

[2] = target: T1, human A2a adenosine receptor; assay: A2a binding affinity using radioligand binding, Method (A); conditions: Method (A): [3H]SCH58261 filtration binding, membranes expressing human A2a
How it was run: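 Filtration binding used human A2a membranes from HEK293 or CHO cells, preincubated with compound 15–30 min. [3H]SCH58261 (diluted to 4 nM) was then added in Tris pH 7.4, MgCl2, Tween20 buffer, with 60 min at room temperature. Non-specific binding was defined by 1 μM ZM241385, and IC50 came from a 4-parameter logistic fit.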

[3] = target: T2, human A2b adenosine receptor (Homo sapiens, UniProt P29275); assay: A2b binding affinity, radioligand filtration binding assay; conditions: tritiated proprietary A2b antagonist, HEK293 membranes expressing human A2b
T2 construct: purchased Perkin Elmer ES-013-C; host or cells: HEK293 cells recombinantly expressing the receptor; membranes made from them
T2 sequence (P29275 1-332): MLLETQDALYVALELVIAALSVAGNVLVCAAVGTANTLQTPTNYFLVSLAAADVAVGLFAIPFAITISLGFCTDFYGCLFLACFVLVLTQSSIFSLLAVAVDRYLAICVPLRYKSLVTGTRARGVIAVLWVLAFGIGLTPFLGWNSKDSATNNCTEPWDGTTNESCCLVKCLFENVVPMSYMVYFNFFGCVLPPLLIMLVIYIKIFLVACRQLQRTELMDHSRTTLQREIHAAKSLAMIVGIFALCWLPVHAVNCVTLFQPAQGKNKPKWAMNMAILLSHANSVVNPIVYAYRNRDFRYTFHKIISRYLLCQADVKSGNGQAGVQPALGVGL
How it was run: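 Membranes from HEK293 cells expressing human A2b were preincubated with compound 15–30 min at room temperature, then incubated 60 min at room temperature with a tritiated proprietary A2b antagonist in PBS pH 7.4 without Mg/Ca. Non-specific binding defined with 20 μM NECA; filter-bound radioactivity counted and IC50 fitted by 4-parameter logistic.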

pIC50 [1] | pIC50 [2] | pIC50 [3] | SMILES
7.96 |  |  | Nc1nc(-c2ccccc2)cc2nc([C@@H]3CCCN(CC(F)F)C3)nn12 [Example 9.2, (R)-2-(1-(2,2-difluoroethyl)piperidin-3-yl)-7-phenyl-[1,2,4]triazolo[1,5-c]pyrimidin-5-amine]
5.99 |  |  | CC(C)(O)c1c(-c2ccccc2)nc(N)n2nc([C@@H]3CCCN(CC(F)(F)F)C3)nc12 [Example 6.5, (R)-2-(5-amino-7-phenyl-2-(1-(2,2,2-trifluoroethyl)piperidin-3-yl)-[1,2,4]triazolo[1,5-c]pyrimidin-8-yl)propan-2-ol]
7.09 |  |  | Nc1nc(-c2ccccc2)c(C2CC2)c2nc([C@@H]3CCCN(CC(F)(F)F)C3)nn12 [Example 5.5, (R)-8-cyclopropyl-7-phenyl-2-(1-(2,2,2-trifluoroethyl)piperidin-3-yl)-[1,2,4]triazolo[1,5-c]pyrimidin-5-amine]
7.18 |  |  | C=C(C)c1c(-c2ccccc2)nc(N)n2nc([C@@H]3CCCN(CC(F)(F)F)C3)nc12 [Example 7.3, (R)-7-phenyl-8-(prop-1-en-2-yl)-2-(1-(2,2,2-trifluoroethyl)piperidin-3-yl)-[1,2,4]triazolo[1,5-c]pyrimidin-5-amine]
 | 7.87 | 6.62 | Cc1c(-c2cccc(F)c2)nc(N)c2nc(C3CCCC(C)(O)C3)nn12 (single isomer, unassigned) [Example 8.11-2, (1R,3S or 1S,3R or 1R,3R or 1S,3S)-1-3-(8-amino-6-(3-fluorophenyl)-5-methyl-[1,2,4]triazolo[1,5-a]pyrazin-2-yl)-1-methylcyclohexan-1-ol]
 | 8.17 | 6.39 | Cc1c(-c2ncco2)nc(N)c2nc(C3CCCC(C)(O)C3)nn12 (single isomer, unassigned) [Example 8.4, (1R,3S and 1S,3R) or (1R,3R and 1S,3S)-3-(8-amino-5-methyl-6-(oxazol-2-yl)-[1,2,4]triazolo[1,5-a]pyrazin-2-yl)-1-methylcyclohexan-1-ol]
 | 6.36 | 5.04 | Cc1c(-c2ncco2)nc(N)n2nc(C3CCN(c4cnn(CC(C)(C)O)c4)C3)nc12 (single isomer, unassigned) [Example 3.15-2, (R or S)-1-(4-(3-(5-amino-8-methyl-7-(oxazol-2-yl)-[1,2,4]triazolo[1,5-c]pyrimidin-2-yl)pyrrolidin-1-yl)-1H-pyrazol-1-yl)-2-methylpropan-2-ol]
 | 6.58 | 5.04 | Cc1c(-c2ncco2)nc(N)c2nc(C3CCCC(C)(O)C3)nn12 (single isomer, unassigned) [Example 8.5, (1R,3S and 1S,3R) or (1R,3R and 1S,3S)-(8-amino-5-methyl-6-(oxazol-2-yl)-[1,2,4]triazolo[1,5-a]pyrazin-2-yl)-1-methylcyclohexan-1-ol]
 | 8.27 | 7.07 | CNC(=O)C(C)(C)n1cc(N2CCC[C@@H](c3nc4c(C)c(-c5ncco5)nc(N)n4n3)C2)cn1 [Example 3.4, (R)-2-(4-(3-(5-amino-8-methyl-7-(oxazol-2-yl)-[1,2,4]triazolo[1,5-c]pyrimidin-2-yl)piperidin-1-yl)-1H-pyrazol-1-yl)-N,2-dimethylpropanamide]
 | 9.00 | 7.70 | Cc1c(-c2ncco2)nc(N)n2nc([C@@H]3CC[C@H](C)N(c4cnn(CC(C)(C)O)c4)C3)nc12 [Example 2.12, 1-(4-((2S,5R)-5-(5-amino-8-methyl-7-(oxazol-2-yl)-[1,2,4]triazolo[1,5-c]pyrimidin-2-yl)-2-methylpiperidin-1-yl)-1H-pyrazol-1-yl)-2-methylpropan-2-ol]
 | 7.49 | 6.21 | Cc1c(-c2ncco2)nc(N)n2nc(C3CCN(CC(F)(F)F)C3)nc12 (racemic) [Example 9.1, (R and S)-8-methyl-7-(oxazol-2-yl)-2-(1-(2,2,2-trifluoroethyl)pyrrolidin-3-yl)-[1,2,4]triazolo[1,5-c]pyrimidin-5-amine]
 | 8.92 | 7.75 | CCn1cc(N2C[C@H](c3nc4c(C)c(-c5ncco5)nc(N)n4n3)CC[C@@H]2C)cn1 [Example 2.14, 2-((3R,6S)-1-(1-ethyl-1H-pyrazol-4-yl)-6-methylpiperidin-3-yl)-8-methyl-7-(oxazol-2-yl)-[1,2,4]triazolo[1,5-c]pyrimidin-5-amine]
 | 7.63 | 6.69 | Cc1c(-c2cccc(F)c2)nc(Br)c2nc([C@H]3C[C@@H]3C(C)(C)O)nn12 (mixture of isomers) [Example 1.2, 2-((1S,2S and 1R,2R)-2-(8-bromo-6-(3-fluorophenyl)-5-methyl-[1,2,4]triazolo[1,5-a]pyrazin-2-yl)cyclopropyl)propan-2-ol]
